# Source: patent US12209142B2, “SARS-CoV-2 epitope-targeted peptide immunostimulants” (Institute for Systems Biology, priority 2020, dated 2025)
# Several values for one entry are separate records, joined by “and”; a condition that tells them apart may be missing. Identical values can stand only once. Bridges are numbered along the chain shown (N, C = ends). Where no end group is shown, it is not given here. [ ]: non-standard residue; d: D form. Lys(N3) = [N-]=[N+]=NCCCC[C@H](N)C(=O)O; Pra = C#CC[C@H](N)C(=O)O
# What was measured:
# Type in all cases: cell-based, Klebsiella pneumoniae
# [1] = tested on: K. pneumoniae cells, BAA 1705 and BAA 2146; assay: Whole-cell ELISA of anti-DNP recruitment to bacterial cell surfaces; conditions: AR-PCC plus anti-DNP; cy(LLFFF)-DNP 5 or 10 μM, cy(HNGPT)-DNP 50 and 100 μM
# Text: FIG. 12 is a plot of 450 nm absorbances obtained from a cell-based ELISA assay conducted on two strains of K. pneumoniae cells, BAA 1705 (black) and BAA 2146 (grey), that were either untreated or opsonized by EPIs (AR-PCCs) and/or antibodies. […] This establishes EPI-driven opsonization by cy(LLFFF)-DNP (SEQ ID NO:5). […] This indicates opsonization by cy(LLFFF)-DNP (SEQ ID NO:5) is specific and is driven by the ligand cy(LLFFF) (SEQ ID NO:5), rather than the Lys(DNP) moiety.
# The protocol for detecting anti-DNP recruitment to bacterial cell surfaces is as follows. […] After washing, bacteria were incubated with HRP conjugated secondary antibody (Bio-Rad) at a dilution of 1:10,000 for 1 h at 37° C. Unbound antibody was washed off by using PBS-BSA and the cells were then developed by using TMB reagent. […] Anti-MrkA antibody was procured from Biorbyt (orb51318) and used at a concentration of 5 μg/mL, and K. pneumoniae antiserum was obtained from abcam (ab20947) and used at a concentration of 5 μg/mL.
# [2] = tested on: K. pneumoniae cells (strain BAA 1705); assay: Gentamicin protection assay: phagocytosis and opsonophagocytic killing (OPK) by macrophages; conditions: 1 h
# Description: FIGS. 7A and 7B show a gentamicin protection assay that evaluates EPI-driven phagocytosis and opsonophagocytic killing (OPK) of K. pneumoniae cells by murine bone-marrow-derived macrophages. FIG. 7A is a flow diagram depicting the assay used to evaluate EPI-driven opsonophagocytic killing (OPK) of K. pneumoniae cells. Briefly, K. pneumoniae cells (strain BAA 1705) opsonized by EPIs (AR-PCCs) and anti-DNP antibodies were incubated with macrophages for 1 or 24 h. Macrophages were lysed, and the lysate was plated to obtain bacterial colonies that were subsequently counted. FIG. 7B is a plot of colony counts for various samples subjected to the OPK assay. […] All EPIs (AR-PCCs) were used at a 5 μM concentration, measurements were conducted in triplicate, and error bars reflect standard deviations. cy(LLFFA) is SEQ ID NO:11.
# It also tested whether DNP-conjugated EPIs could promote the opsonophagocytic killing (OPK) of K. pneumoniae by macrophages. This was tested by using an OPK assay. Briefly, K. pneumoniae cells were treated with EPI and then anti-DNP antibody before being exposed to macrophages for either 6 or 24 hours. During this incubation period, macrophages that recognize K. pneumoniae cells will phagocytose them, and phagocytosed bacteria will remain viable for up to 6 hours, but within 24 hours are rendered inviable by OPK. Thus, macrophages were isolated after 6 and 24 hours of incubation with K. pneumoniae, lysed them, and plated and grew the lysate, which yielded bacterial colonies that reflect the phagocytosis (at 6 hrs) or OPK (at 24 hrs) of bacteria.
# Given that cy(LLFFF)-DNP (SEQ ID NO:5) recruits antibodies to K. pneumoniae surfaces, it was expected that K. pneumoniae opsonized in this manner would be more susceptible to phagocytosis by macrophages. AR-PCC-driven phagocytosis and OPK were quantified by a gentamicin protection assay, as depicted in FIG. 7A. For this assay, K. pneumoniae cells (strain BAA 1705) were treated with cy(LLFFF)-DNP (SEQ ID NO:5), opsonized by anti-DNP antibodies, and then incubated with murine bone-marrow-derived macrophages (BMDMs). BMDMs were subsequently exposed to a solution containing gentamicin, to which K. pneumoniae strain BAA 1705 is susceptible, to kill any extracellular bacteria. Phagocytosed bacteria remain viable inside BMDMs for at least 1 h, yet are rendered inviable after 24 h by OPK (FIG. 13). Macrophages harvested at 1 h and 24 h were lysed and plated to generate bacterial colonies, which were enumerated to quantify phagocytosis and OPK.
# Opsonophagocytic killing (OPK) assays. Klebsiella pneumoniae BAA1705 was treated with DNP-PCCs followed by incubation with anti-DNP antibody, as described above in the “Cell-Based ELISAs” section. These opsonized bacteria were then used to infect BMDMs at a multiplicity of infection of 50 for 0.5 h at 37° C. Bacteria were then washed by using RPMI 1640 Media and BMDMs were left in cell culture medium containing gentamicin (100 μg/ml). After 1 h and 24 h BMDMs were washed to remove gentamicin and intracellular bacteria were harvested by lysing BMDMs in RPMI media containing 0.2% Triton X 100. Bacterial CFUs were enumerated by plating onto LB agar. Bacterial counts at 1 h indicated the degree of opsonization while those at 24 h served as a measure of microbicidal activity of macrophages. For these measurements, anti-MrkA antibody and K. pneumoniae antiserum were used at dilutions of 5 μg/mL each.
# [3] = tested on: K. pneumoniae cells (strain BAA 2146); assay: Flow cytometry of AR-PCC-driven opsonization by anti-DNP antibodies; conditions: cy(LLFFF)-DNP 1 or 5 μM, cy(HNGPT) control 50 μM, plus fluorescent anti-DNP
substance,measurement,setting,value
"cy(LLFFF)-DNP: cy(LLFFF) tagged with a DNP-modified lysine residue; lead AR-PCC ([Pra]LLFFF[Lys(N3)]; bridge 1-7; not fully specified (bridges); printed as cy(LLFFF)-DNP; also: tagged with a DNP-modified lysine residue, position not given here)","450 nm absorbance, anti-DNP recruitment to cells",[1],much larger signal
same,"phagocytosis at 1 h, AR-PCC only (no anti-DNP)",[2]; AR-PCC 5 μM,None of these treatments elicited phagocytosis above basal levels
same,"colony counts at 1 h, AR-PCC plus anti-DNP antibody","[2]; AR-PCC 5 μM, murine BMDMs","89,000 CFU and 85,000 CFU"
same,level of phagocytosis lower than that induced by K. pneumoniae antiserum and anti-MrkA treatment,[2]; plus anti-DNP,about 15%
same,fluorescence of cells (opsonization by anti-DNP),[3],much higher fluorescence
